Structures can show the parent of a compound that is named as a salt.
Assays:
[1] = i.v. pharmacokinetics in Wistar rats; format: in vivo; details: after i.v. bolus administration, male Wistar rats
Description: d) i.v. Pharmacokinetics in Wistar Rats:
(§1) On the day before administration of the substance, a catheter for obtaining blood is implanted in the jugular vein of the experimental animals (male Wistar rats, body weight 200-250 g) under Isofluran® anesthesia.
(§2) On the day of the experiment, a defined dose of the test substance is administered as solution into the tail vein using a Hamilton® glass syringe (bolus administration, duration of administration <10 s). Blood samples (8-12 time points) are taken through the catheter sequentially over the course of 24 h after administration of the substance. Plasma is obtained by centrifuging the samples in heparinized tubes. Acetonitrile is added to a defined plasma volume per time point to precipitate proteins. After centrifugation, test substance and, where appropriate, known cleavage products of the test substance in the supernatant are determined quantitatively using a suitable LC/MS-MS method.
The measured plasma concentrations are used to calculate pharmacokinetic parameters of the test substance and of the active ingredient compound (A) liberated therefrom, such as AUC, Cmax, T1/2 (half-life) and CL (clearance).

[2] = Determination of the solubility in 5% strength aqueous dextrose solution; format: physicochemical; details: saline or isotonic, thermodynamic from solid; for solubility thermodynamic at 24 h: room temperature
Description: a) Determination of the Solubility:
The test substance is suspended in 5% strength aqueous dextrose solution. This suspension is shaken at room temperature for 24 h. After ultracentrifugation at 224 000 g for 30 min, the supernatant is diluted with DMSO and analysed by HPLC. A two-point calibration plot of the test compound in DMSO is used for quantification.
Agilent 1100 with DAD (G1315A), quat. Pump (G1311A), autosampler CTC HTS PAL, degasser (G1322A) and column thermostat (G1316A); column: Phenomenex Gemini C18, 5 μm, 50 mm×2 mm; temperature: 40° C.; eluent A: water/phosphoric acid pH 2, eluent B: acetonitrile; flow rate: 0.7 ml/min; gradient: 0-0.5 min 85% A, 15% B; ramp 0.5-3 min 10% A, 90% B; 3-3.5 min 10% A, 90% B; ramp 3.5-4 min 85% A, 15% B; 4-5 min 85% A, 15% B.
Agilent 1100 with DAD (G1315A), quat. pump (G1311A), autosampler CTC HTS PAL, degasser (G1322A) and column thermostat (G1316A); column: VDSoptilab Kromasil 100 C18, 3.5 μm, 60 mm×2.1 mm; temperature: 30° C.; eluent A: water+5 ml of perchloric acid/liter, eluent B: acetonitrile; flow rate: 0.75 ml/min; gradient: 0-0.5 min 98% A, 2% B; ramp 0.5-4.5 min 10% A, 90% B; 4.5-6 min 10% A, 90% B; ramp 6.5-6.7 min 98% A, 2% B; 6.7-7.5 min 98% A, 2% B.

[3] = Oral pharmacokinetics in Wistar rats; format: in vivo; details: after oral administration by gavage, male Wistar rats
Description: e) Oral Pharmacokinetics in Wistar Rats:
as §1
as §2, with “stomach by gavage.” for “tail vein using a Hamilton® glass syringe (bolus administration, duration of administration <10 s).”
The measured plasma concentrations are used to calculate pharmacokinetic parameters of the test substance and of the active ingredient compound (A) liberated therefrom, such as AUC, Cmax, T1/2 (half-life).

[4] = Stability in buffer at various pH values; format: physicochemical
Description: b) Stability in Buffer at Various pH Values:
0.3 mg of the test substance is weighed into a 2 ml HPLC vial and 0.5 ml of acetonitrile or acetonitrile/DMSO (9:1) is added. The substance is dissolved by putting the sample vessel in an ultrasonic bath for about 10 seconds. Then 0.5 ml of the respective buffer solution is added, and the sample is again treated in the ultrasonic bath.
pH 2: 0.03 mol of citric acid, 0.061 mol of sodium chloride and 0.0082 mol of hydrochoric acid ad 1 liter of water;
pH 4: 1 liter of Millipore water is adjusted to pH 4.0 with 1 N hydrochloric acid;
pH 5: 0.096 mol of citric acid and 0.2 mol of sodium hydroxide ad 1 liter of water;
pH 6: 0.06 mol of citric acid and 0.16 mol of sodium hydroxide ad 1 liter of water;
pH 7.4: 90.0 g of sodium chloride, 13.61 g of potassium dihydrogen phosphate and 83.35 g of 1 N sodium hydroxide solution are made up to 1 liter with water; this solution is then further diluted 1:10 with Millipore water.
pH 8: 0.013 mol of borax and 0.021 mol of hydrochloric acid ad 1 liter of water.
5 μl portions of the test solution are analyzed by HPLC for their content of unchanged test substance, and of parent substance (A) produced, every hour over a period of 24 hours at 37° C. The percentage areas of the appropriate peaks are used for quantification.
The ratios of the peak areas (F) at the respective time points in relation to the peak areas at the starting time are shown in Table 2 for representative exemplary embodiments: […]

[5] = system: heart rate of anesthetized rats; assay: Influence on the heart rate of anesthetized rats; format: in vivo; details: maximum decrease in the first 30 min after i.v. bolus of 100 μg/kg of (A) or equivalent dosages; anesthetized male Wistar rats
Description: f) Determination of the Influence on the Heart Rate of Anesthetized Rats:
Male Wistar rats with a body weight above 250 g are employed. In the night before the experiment, the animals receive no feed but still have free access to drinking water. Preparation and investigations are carried out under Trapanal® anesthesia (100 mg/kg i.p.). Injection and infusion take place through a catheter in the jugular vein, and the blood pressure is recorded via a catheter in the femoral artery (transducer: Braun, Melsungen). After the preparation, the animals are connected to a continuous infusion of physiological saline solution to compensate fluid losses. Test substance or placebo solution are administered as bolus after an equilibration time of about 1 h. Heart rate and arterial blood pressure are recorded during the equilibration and over a period of at least 30 min after the bolus injection with the aid of a digital evaluation program.
Table 4 lists the maximum heart rate decrease in the first 30 min after an i.v. bolus of 100 μg/kg of the active substance (A) or of equivalent dosages of representative exemplary embodiments: […]

SMILES: C[C@H](NC(=O)[C@@H](N)CCCCN)C(=O)OCCOc1ccc(-c2c(C#N)c(N)nc(SCc3csc(-c4ccc(Cl)cc4)n3)c2C#N)cc1 [Example 4, 2-{4-[2-Amino-6-({[2-(4-chlorophenyl)-1,3-thiazol-4-yl]methyl}thio)-3,5-dicyanopyridin-4-yl]-phenoxy}ethyl L-lysyl-L-alaninate dihydrochloride]
- detectability of test substance in plasma [1]: no longer detectable in plasma even at the first measurement point
- solubility thermodynamic at 24 h [2]: > 500 µg/mL
- detectability of test substance in plasma [3]: no longer detectable in plasma even at the first measurement point
- % test substance after 4 h [F(t = 4 h) × 100/F(t = 0 h)] ([4]; pH 4, 37° C.): 100%
- % test substance after 24 h [F(t = 24 h) × 100/F(t = 0 h)] ([4]; pH 4, 37° C.): 100%
- % test substance after 4 h [F(t = 4 h) × 100/F(t = 0 h)] ([4]; pH 5, 37° C.): 100%
- % test substance after 24 h [F(t = 24 h) × 100/F(t = 0 h)] ([4]; pH 5, 37° C.): 98%
- % test substance after 4 h [F(t = 4 h) × 100/F(t = 0 h)] ([4]; pH 6, 37° C.): 97%
- % test substance after 24 h [F(t = 24 h) × 100/F(t = 0 h)] ([4]; pH 6, 37° C.): 84%
- % test substance after 4 h [F(t = 4 h) × 100/F(t = 0 h)] ([4]; pH 7.4, 37° C.): 48%
- % test substance after 24 h [F(t = 24 h) × 100/F(t = 0 h)] ([4]; pH 7.4, 37° C.): 2%
- Heart rate decrease [5]: 19%

SMILES: CC(C)[C@H](NC(=O)[C@@H](N)CCCCN)C(=O)OCCOc1ccc(-c2c(C#N)c(N)nc(SCc3csc(-c4ccc(Cl)cc4)n3)c2C#N)cc1 [Example 1, 2-{4-[2-Amino-6-({[2-(4-chlorophenyl)-1,3-thiazol-4-yl]methyl}thio)-3,5-dicyanopyridin-4-yl]-phenoxy}ethyl L-lysyl-L-valinate dihydrochloride]
- solubility thermodynamic at 24 h [2]: > 500 µg/mL
- % test substance after 4 h [F(t = 4 h) × 100/F(t = 0 h)] ([4]; pH 4, 37° C.): 100%
- % test substance after 24 h [F(t = 24 h) × 100/F(t = 0 h)] ([4]; pH 4, 37° C.): 100%
- % test substance after 4 h [F(t = 4 h) × 100/F(t = 0 h)] ([4]; pH 6, 37° C.): 100%
- % test substance after 24 h [F(t = 24 h) × 100/F(t = 0 h)] ([4]; pH 6, 37° C.): 100%
- % test substance after 4 h [F(t = 4 h) × 100/F(t = 0 h)] ([4]; pH 7.4, 37° C.): 99%
- % test substance after 24 h [F(t = 24 h) × 100/F(t = 0 h)] ([4]; pH 7.4, 37° C.): 96%
- % test substance after 4 h [F(t = 4 h) × 100/F(t = 0 h)] ([4]; pH 8, 37° C.): 99%
- % test substance after 24 h [F(t = 24 h) × 100/F(t = 0 h)] ([4]; pH 8, 37° C.): 90%
- Heart rate decrease [5]: 10%

SMILES: N#Cc1c(N)nc(SCc2csc(-c3ccc(Cl)cc3)n2)c(C#N)c1-c1ccc(OCCOC(=O)[C@H](CO)NC(=O)[C@@H](N)CCCCN)cc1 [Example 5, 2-{4-[2-Amino-6-({[2-(4-chlorophenyl)-1,3-thiazol-4-yl]methyl}thio)-3,5-dicyanopyridin-4-yl]-phenoxy}ethyl L-lysyl-L-serinate dihydrochloride]
- detectability of test substance in plasma [1]: no longer detectable in plasma even at the first measurement point
- solubility thermodynamic at 24 h [2]: > 500 µg/mL
- detectability of test substance in plasma [3]: no longer detectable in plasma even at the first measurement point
- % test substance after 4 h [F(t = 4 h) × 100/F(t = 0 h)] ([4]; pH 4, 37° C.): 100%
- % test substance after 24 h [F(t = 24 h) × 100/F(t = 0 h)] ([4]; pH 4, 37° C.): 100%
- % test substance after 4 h [F(t = 4 h) × 100/F(t = 0 h)] ([4]; pH 5, 37° C.): 100%
- % test substance after 24 h [F(t = 24 h) × 100/F(t = 0 h)] ([4]; pH 5, 37° C.): 98%
- % test substance after 4 h [F(t = 4 h) × 100/F(t = 0 h)] ([4]; pH 6, 37° C.): 95%
- % test substance after 24 h [F(t = 24 h) × 100/F(t = 0 h)] ([4]; pH 6, 37° C.): 70%
- Heart rate decrease [5]: 12%

SMILES: N#Cc1c(N)nc(SCc2csc(-c3ccc(Cl)cc3)n2)c(C#N)c1-c1ccc(OCCO)cc1 [compound (A), 2-amino-6-({[2-(4-chlorophenyl)-1,3-thiazol-4-yl]methyl}thio)-4-[4-(2-hydroxy-ethoxy)phenyl]pyridine-3,5-dicarbonitrile, reference compound]
- solubility at 24 h [2]: < 0.1 µg/mL
- Heart rate decrease [5]: 24%

SMILES: N#Cc1c(N)nc(SCc2csc(-c3ccc(Cl)cc3)n2)c(C#N)c1-c1ccc(OCCOC(=O)CC[C@H](N)C(=O)NCCN)cc1 [Example 6, 2-{4-[2-Amino-6-({[2-(4-chlorophenyl)-1,3-thiazol-4-yl]methyl}thio)-3,5-dicyanopyridin-4-yl]-phenoxy}ethyl N-(2-aminoethyl)-L-α-glutaminate dihydrochloride]
- detectability of test substance in plasma [1]: no longer detectable in plasma even at the first measurement point
- solubility thermodynamic at 24 h [2]: > 500 µg/mL
- detectability of test substance in plasma [3]: no longer detectable in plasma even at the first measurement point
- % test substance after 4 h [F(t = 4 h) × 100/F(t = 0 h)] ([4]; pH 2, 37° C.): 100%
- % test substance after 24 h [F(t = 24 h) × 100/F(t = 0 h)] ([4]; pH 2, 37° C.): 100%
- % test substance after 4 h [F(t = 4 h) × 100/F(t = 0 h)] ([4]; pH 4, 37° C.): 100%
- % test substance after 24 h [F(t = 24 h) × 100/F(t = 0 h)] ([4]; pH 4, 37° C.): 100%
- % test substance after 4 h [F(t = 4 h) × 100/F(t = 0 h)] ([4]; pH 5, 37° C.): 96%
- % test substance after 24 h [F(t = 24 h) × 100/F(t = 0 h)] ([4]; pH 5, 37° C.): 80%
- % test substance after 4 h [F(t = 4 h) × 100/F(t = 0 h)] ([4]; pH 6, 37° C.): 78%
- % test substance after 24 h [F(t = 24 h) × 100/F(t = 0 h)] ([4]; pH 6, 37° C.): 25%
- % test substance after 4 h [F(t = 4 h) × 100/F(t = 0 h)] ([4]; pH 7.4, 37° C.): 8%
- % test substance after 24 h [F(t = 24 h) × 100/F(t = 0 h)] ([4]; pH 7.4, 37° C.): 0%
- Heart rate decrease [5]: 17%

SMILES: N#Cc1c(N)nc(SCc2csc(-c3ccc(Cl)cc3)n2)c(C#N)c1-c1ccc(OCCOC(=O)[C@@H](N)CCC(=O)NCCN)cc1 [Example 7, dihydrochloride]
- detectability of test substance in plasma [1]: no longer detectable in plasma even at the first measurement point
- solubility thermodynamic at 24 h [2]: 100 µg/mL
- % test substance after 4 h [F(t = 4 h) × 100/F(t = 0 h)] ([4]; pH 4, 37° C.): 100%
- % test substance after 24 h [F(t = 24 h) × 100/F(t = 0 h)] ([4]; pH 4, 37° C.): 98%
- % test substance after 4 h [F(t = 4 h) × 100/F(t = 0 h)] ([4]; pH 7.4, 37° C.): 51%
- % test substance after 24 h [F(t = 24 h) × 100/F(t = 0 h)] ([4]; pH 7.4, 37° C.): 2%
- Heart rate decrease [5]: 15%
